PubChem BioAssay (NCI)
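Interpolation was linear, between the two tested concentrations surrounding the appropriate level; five concentrations were tested over 48 hours in 96-well plates. TGI denotes the concentration required for complete inhibition of growth.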

What was measured:
Assay in all cases: NCI anticancer screen, dose series, 48 h
NCI-H226 lung = tested on: NCI-H226 lung
OVCAR-4 ovarian = tested on: OVCAR-4 ovarian
TK-10 renal = tested on: TK-10 renal
SNB-75 CNS = tested on: SNB-75 CNS
HOP-92 NSCLC = tested on: HOP-92 NSCLC
HCT-116 colon = tested on: HCT-116 colon
HL-60(TB) leukemia = tested on: HL-60(TB) leukemia
SK-OV-3 ovarian = tested on: SK-OV-3 ovarian
SK-MEL-5 melanoma = tested on: SK-MEL-5 melanoma
A498 renal = tested on: A498 renal

Row | Compound | TGI (NCI-H226 lung) | TGI (OVCAR-4 ovarian) | TGI (TK-10 renal) | TGI (SNB-75 CNS) | TGI (HOP-92 NSCLC) | TGI (HCT-116 colon) | TGI (HL-60(TB) leukemia) | TGI (SK-OV-3 ovarian) | TGI (SK-MEL-5 melanoma) | TGI (A498 renal)
1 | Cc1ccc(S(=O)(=O)C(C#N)c2nc3ccccc3nc2-n2cccn2)cc1 (stereo not given) | > 100 µM | > 100 µM | > 100 µM | > 100 µM | > 100 µM | > 100 µM | > 100 µM | > 100 µM | – | –
2 | O=C(C[C@@H]1NCCC[C@H]1O)Cn1cnc2cc(Br)c(Cl)cc2c1=O | 0.0473 µM | 0.0809 µM | – | 0.338 µM | 0.11 µM | 0.121 µM | – | 0.813 µM | 0.0473 µM | 0.316 µM
3 | O=C1CCSSCCC(=O)Nc2ccccc2N1 | > 100 µM | > 100 µM | > 100 µM | – | > 100 µM | > 100 µM | > 100 µM | > 100 µM | > 100 µM | > 100 µM
4 | COc1ccc(/C=N/Nc2[nH]c(=S)nc3[nH]ncc23)cc1 | > 100 µM | > 100 µM | 65.9 µM | > 100 µM | – | > 100 µM | > 100 µM | > 100 µM | > 100 µM | > 100 µM
5 | O=C1C/C(=C\O)C(=O)c2ccccc2N1 | > 100 µM | > 100 µM | > 100 µM | – | > 100 µM | > 100 µM | > 100 µM | > 100 µM | > 100 µM | > 100 µM
6 | CN(C)c1ccc(-c2nc(-c3cc4c(ccc5ccccc54)oc3=O)cs2)cc1 | > 100 µM | > 100 µM | > 100 µM | > 100 µM | > 100 µM | > 100 µM | > 100 µM | > 100 µM | > 100 µM | –
7 | CC(=O)N(C(C)=O)n1c(Cc2ccc(Cl)cc2)nn(C(C)=O)c1=O | > 100 µM | > 100 µM | > 100 µM | > 100 µM | – | – | > 100 µM | > 100 µM | > 100 µM | > 100 µM
8 | CC(=O)N[C@@H](Cc1ccc(O)cn1)C(=O)NCc1ccc2c(c1)OCO2 | > 100 µM | > 100 µM | > 100 µM | – | > 100 µM | > 100 µM | > 100 µM | > 100 µM | > 100 µM | > 100 µM
9 | Brc1ccc2c(c1)C1(c3cc(Br)ccc3-2)c2cc(Br)ccc2-c2ccc(Br)cc21 | > 100 µM | > 100 µM | > 100 µM | – | – | > 100 µM | > 100 µM | > 100 µM | – | –
10 | NC1=NS(=O)(=O)N=C(N)C1=Cc1ccc([N+](=O)[O-])o1 | 53.7 µM | 34.1 µM | 32.6 µM | 29.9 µM | 26.7 µM | 28.7 µM | > 100 µM | > 100 µM | 28.6 µM | –
11 | C#CC(C)(C)Oc1cc(OC)c2c(=O)c3ccccc3n(C)c2c1 | 36.4 µM | 41.8 µM | > 100 µM | 70.1 µM | – | > 100 µM | 28.7 µM | 54.9 µM | 23.4 µM | –
12 | [N-]=[N+]=NC1(c2ccccc2)C(=O)Nc2ccccc2C1=O (stereo not given) | – | > 100 µM | > 100 µM | > 100 µM | 84.5 µM | > 100 µM | > 100 µM | > 100 µM | 33.1 µM | 43.4 µM
13 | O=C1c2cc([N+](=O)[O-])ccc2NC2C(O)c3ccccc3N12 (stereo not given) | 82.9 µM | 55.8 µM | 58.1 µM | 44.8 µM | 53.6 µM | > 100 µM | – | 36 µM | > 100 µM | 41.8 µM
14 | O=C1c2cc3c(cc2CC12Cc1cc4c(cc1C2)CCC4)CCC3 | – | > 100 µM | > 100 µM | > 100 µM | > 100 µM | > 100 µM | > 100 µM | > 100 µM | > 100 µM | > 100 µM
15 | CCCCCCCCCCCCCCCCOCC(CC(F)(F)P(=O)(O)O)OC(C)=O (stereo not given) | > 50 µM | – | > 50 µM | > 50 µM | > 50 µM | > 50 µM | – | > 50 µM | > 50 µM | > 50 µM
16 | c1ccc2c(c1)CC1c3[nH]c4ccccc4c3CCN21 (stereo not given) | > 10 µM | > 10 µM | > 10 µM | > 10 µM | > 10 µM | > 10 µM | > 10 µM | > 10 µM | > 10 µM | –
17 | O=C1c2cc(Cl)ccc2-n2c(noc2=O)C2CSCN12 (stereo not given) | > 100 µM | > 100 µM | > 100 µM | > 100 µM | – | > 100 µM | – | > 100 µM | > 100 µM | > 100 µM
18 | CC1CN=C(c2cccc(OCc3ccc(COc4cccc(C5=NCC(C)N5)c4)cc3)c2)N1 (stereo not given) | – | > 100 µM | > 100 µM | 91.4 µM | > 100 µM | > 100 µM | > 100 µM | > 100 µM | > 100 µM | > 100 µM
19 | Cc1nc2c(n1Cc1ccc(Cl)cc1)C(=O)c1ccccc1C2=O | > 75 µM | > 75 µM | > 75 µM | > 75 µM | – | > 75 µM | > 75 µM | > 75 µM | > 75 µM | –
20 | COc1cc(S(=O)(=O)Nc2nc(-c3ccc(N4C(=O)/C(=C/c5ccccc5)N=C4c4ccccc4)cc3)cs2)ccc1Cl | > 100 µM | > 100 µM | > 100 µM | > 100 µM | > 100 µM | > 100 µM | – | > 100 µM | > 100 µM | > 100 µM
21 | Oc1ccc(-c2c3c(nc4c2CCc2ccc(Br)cc2-4)-c2cc(Br)ccc2CC3)cc1 | 48 µM | 48 µM | 45.4 µM | 54.9 µM | 31.1 µM | 53.7 µM | – | 30.6 µM | 35.7 µM | 48.6 µM
22 | CCOC(=O)C1C/C(C)=C(/C)SCCCS1 (stereo not given) | > 100 µM | > 100 µM | > 100 µM | – | > 100 µM | > 100 µM | 54.6 µM | > 100 µM | > 100 µM | > 100 µM
23 | CC(C)(CN1CCCCC1)C(=O)CC(SCCS(=O)(=O)O)c1ccc(Br)cc1 (stereo not given) | 8.75 µM | 4.06 µM | 7.97 µM | 6.16 µM | 2.08 µM | 3.04 µM | – | – | 3.32 µM | 5.73 µM
24 | O=C1/C(=C/c2cccc(Oc3ccccc3)c2)N=C(c2ccccc2)N1c1nc2ccc(Sc3ccccc3)cc2[nH]1 | – | > 100 µM | 68.4 µM | 60.4 µM | > 100 µM | > 100 µM | 49.9 µM | > 100 µM | 75.3 µM | 81.2 µM
